Assay [1] concerns TC-1 tumor. Nature of the assay: TC-1 tumor model: tumor growth, survival and circulating CD8 T cells (STINGa 2). It counts as in vivo, C57BL/6 mice. The following applies: TC-1 model, complex day 6 and 13, STINGa 2 s.c. days 6, 10, 13 and 17. The protocol:
(§1) C57BL/6 mice were implanted s.c. with 1×10^5 TC-1 tumor cells in the back and mice were stratified according to tumor size on day 6 tumor implantation. Alternatively, C57BL/6J mice were injected i.v. with 1×10^5 B16-OVA cells. Mice were vaccinated two times (at day 6 and 13 post tumor implantation) by s.c. injection of 10 nmoles of vaccine at the tail base. At the same time of vaccination, mice received 25 μg of STING agonist administered via 2×50 μl s.c. injections in each side of the low back. Alternatively, at the same time of vaccination, mice received 10 μg of STING agonist 2 administered via 2×100 μl s.c. injections in each side of the low back.
(§2) Tumor size was measured with a caliper and mice were euthanized when tumor reached a volume of 1000 mm^3. Tumor volume was calculated with the following formula:
(§3) V=length×length×width×Pi/6
Similarly as described above, 10^5 TC-1 cells were implanted on the back of C57BL/6 mice and assigned to distinct groups (control (no treatment); complex comprising a cell penetrating peptide, at least one antigen or antigenic epitope, and a TLR peptide agonist (Z13Mad25Anaxa); STING agonist STINGa 2; and a combination thereof). […]

Assay [2] relates to TC-1 tumor. Nature of the assay: TC-1 tumor model: intra-tumoral expression of PD-L1, MHC-I and MHC-II. Type of assay: in vivo, C57BL/6 mice. The protocol:
as §1
(§4) TC-1 tumors were harvested at day 20 post implantation and tumor-infiltrating leucocytes (TIL) were purified using Miltenyi tumor dissociation kit following manufacturer instruction. Briefly, tumor tissues were cut into small pieces, and resuspended in DMEM medium containing tumor dissociating enzymes (Miltenyi). Tumors were digested on a Gentle MACS with heating system (Miltenyi) using solid tumor program. […]
Furthermore, down-regulation of MHC-I expression on tumor cells is one of the main mechanism of immune evasion. Therefore, the intra-tumoral expression of PD-L1 and MHC-I as well as MHC-II was also monitored in the TC-1 tumor model as described above.

The test system of assay [3] is TC-1 tumor. Briefly: TC-1 tumor model: intra-tumoral CD4 T cell responses. It counts as in vivo, C57BL/6 mice. The protocol: as §1
as §4, with “program. Enzymatic digestion was stopped by adding cold PBS 0.5% BSA solution and keeping cells on ice. Digested tumors were passed through a 70 μm to eliminate remaining undigested tissue. CD45+ cells were purified using CD45 TIL microbeads (Miltenyi) following manufacturer protocol.” for “program.”
In view thereof, intra-tumoral CD4 T cells were monitored next. […]

Assay [4] relates to TC-1 tumor. Briefly: TC-1 tumor model: tumor growth and survival (STINGa). Type of assay: in vivo, C57BL/6 mice. The following applies: TC-1 model, treated twice at one-week interval. The protocol:
as §1, §2, §3
10^5 TC-1 cells were implanted on the back of C57BL/6 mice. When tumors were visible, mice were treated twice at one-week interval as described above in therapeutic settings of the TC-1 tumor model with (i) the complex comprising a cell penetrating peptide, at least one antigen or antigenic epitope, and a TLR peptide agonist (Z13Mad25Anaxa); (ii) the STING agonist; or (iii) a combination of both.

A further assay deals with IFN-α. Briefly: Quantification of serum interferon-α (ELISA) in tumor-free mice. The following applies: 4 and 24 hours post first vaccination, s.c. Type of assay: in vivo, C57BL/6 mice. As to the method:
Blood was collected from mouse tail vein and serum was isolated by centrifugation using Starstedt tubes. The concentration of IFN-α cytokine was measured using commercial ELISA kits according to the manufacturer's recommendations (PBL Assay Science).
In order to evaluate the immunogenicity of the combination, tumor-free C57BL/6 mice were vaccinated twice at 2 weeks interval (at day 0 and 14) by s.c. injection of 10 nmoles of Z13Mad25Anaxa (an exemplified a complex comprising a cell penetrating peptide, at least one antigen or antigenic epitope, and a TLR peptide agonist, which contains human papilloma virus (HPV)-derived CD4 and CD8 epitopes. At about the same time of vaccination, mice received 25 μg of STING agonist ADU-S100 administered via 2×50 μl s.c. injections in each side of the low back. Serum was collected 4 and 24 hours after the first vaccination and IFN-α concentration was measured by ELISA. Whole blood was collected at day 21 and used for antigen-specific CD8 T cells measurement by multimer flow cytometry staining. At the same time, spleens were harvested and splenocytes used for ex vivo stimulation and intracellular cytokine production was analyzed by flow cytometry. Alternatively, splenocytes were used for TCR avidity assay.

The subject of a further assay is B16-OVA tumor. Nature of the assay: B16-OVA pulmonary metastases tumor model. It counts as in vivo, C57BL/6 mice. The note with it: B16-OVA i.v., day 20. As to the method:
as §1
B16-OVA tumor bearing mice were sacrificed at day 20, lungs were perfused with a saline solution and the number of lung metastasis was counted.
B16-OVA tumor bearing mice were perfused with a saline solution to eliminate blood from the lungs before their collection. Lung-infiltrating leucocytes (LILs) were purified using mouse tumor dissociation kit from Miltenyi, following manufacturer instruction. […]
Briefly, 10^5 B16-OVA cells were injected intravenously into C57BL/6 mice. […] At day 20 (10 days after the last vaccination), lungs were perfused to eliminate blood, the number of pulmonary metastasis was counted, and lung infiltrating lymphocytes (LILs) were analyzed.

For assay [5], the system named is TC-1 tumor. Nature of the assay: TC-1 tumor model: tumor microenvironment composition by FACS. It counts as in vivo, C57BL/6 mice. The following applies: systemic administration. The protocol: as §1
as §4, with “program. Enzymatic digestion was stopped by adding cold PBS 0.5% BSA solution and keeping cells on ice. Digested tumors were passed through a 70 μm to eliminate remaining undigested tissue. CD45+ cells were purified using CD45 TIL microbeads (Miltenyi) following manufacturer protocol.” for “program.”
A general note: A flow cytometer gives signals particle by particle.

Assay [6] has as its system HPV-E7-specific CD8 T cells, splenic CD8 and CD4 T cells. Briefly: Immunogenicity in tumor-free mice: multimer staining and flow cytometry of blood and splenocytes. It counts as in vivo, C57BL/6 mice. The protocol: (§5) Peripheral blood and spleen mononuclear cell suspensions from mice were isolated using Ficoll-Paque gradient (GE Healthcare) before flow cytometry analysis, ex vivo stimulation or TCR avidity assay.
TILs, LILs or splenocytes were numerated and 1×10^5 or 2×10^6 cells were plated per condition, respectively. Cells were incubated with HPV-CD4, HPV-CD8, OVA-CD8 or OVA-CD4 epitope peptide, with PMA/ionomycin as a positive control or without any stimulant as a negative control, in presence of Golgi stop (BD biosciences) and anti-CD107a for 6 hours. […]
The following antibodies were used: CD45 (30-F11), CD11b (M1/70), KLRG1 (2F1), CD103 (M290), NKg2a (20d5), Ly6C (AL-21), Ly6G (1A8), PD-L1 (MIH5), I-A/I-E (M5/114), CD11c (HL3), PDCA1 (927), CD64 (X54-5/7.1), B220 (RA3-6B2), CD24 (M1/69), CD4 (GK1.5), CD25 (3C7), CD3 (500A2), NKp46 (29A1.4), TNF-α (MP6-XT22), IFN-γ (XMG1.2), H2-Kb (AF6-88.5) and H2-db (28-14-8) were from BD Biosciences; Tim3 (RMT3-23), PD-1 (29F.1A12), CD38 (90), Gr-1 (RB6-8C5), CD206 (C068C2), CD68 (FA-11) were from BioLegend; Ki67 (solA15), FoxP3 (FJK-16s), T-bet (4B10), GATA-3 (TWAJ) and RORγt (AFKJS-9) were from ThermoFisher Scientific; Granzyme B (REA226) was from Miltenyi; CD8 (KT15) was from MBL. […] Cells were analyzed using an Attune NxT flow cytometer (ThermoFisher Scientific) Kaluza (Beckman Coulter) software. […]

Assay [7] deals with TC-1 tumor. Briefly: TC-1 tumor model: antigen-specific CD8 T cell responses. It counts as in vivo, C57BL/6 mice. The protocol: as §1
TC-1 tumors were harvested at day 20 post implantation and tumor-infiltrating leucocytes (TIL) were purified using Miltenyi tumor dissociation kit following manufacturer instruction. Briefly, tumor tissues were cut into small pieces, and resuspended in DMEM medium containing tumor dissociating enzymes (Miltenyi). Tumors were digested on a Gentle MACS with heating system (Miltenyi) using solid tumor program. Enzymatic digestion was stopped by adding cold PBS 0.5% BSA solution and keeping cells on ice. Digested tumors were passed through a 70 μm to eliminate remaining undigested tissue. CD45+ cells were purified using CD45 TIL microbeads (Miltenyi) following manufacturer protocol. Purified CD45+ cells were used for flow cytometry staining or ex vivo T cells stimulation.
as §5
TILs, LILs or splenocytes were numerated and 1×10^5 or 2×10^6 cells were plated per condition, respectively. […]
The following antibodies were used: CD45 (30-F11), CD11b (M1/70), KLRG1 (2F1), CD103 (M290), NKg2a (20d5), Ly6C (AL-21), Ly6G (1A8), PD-L1 (MIH5), I-A/I-E (M5/114), CD11c (HL3), PDCA1 (927), CD64 (X54-5/7.1), B220 (RA3-6B2), CD24 (M1/69), CD4 (GK1.5), CD25 (3C7), CD3 (500A2), NKp46 (29A1.4), TNF-α (MP6-XT22), IFN-γ (XMG1.2), H2-Kb (AF6-88.5) and H2-db (28-14-8) were from BD Biosciences; Tim3 (RMT3-23), PD-1 (29F.1A12), CD38 (90), Gr-1 (RB6-8C5), CD206 (C068C2), CD68 (FA-11) were from BioLegend; Ki67 (solA15), FoxP3 (FJK-16s), T-bet (4B10), GATA-3 (TWAJ) and RORγt (AFKJS-9) were from ThermoFisher Scientific; Granzyme B (REA226) was from Miltenyi; CD8 (KT15) was from MBL. […] Cells were analyzed using an Attune NxT flow cytometer (ThermoFisher Scientific) Kaluza (Beckman Coulter) software.
To this end, 10^5 TC-1 tumor cells were implanted on the back of C57BL/6 mice. […] One week after the last treatment, mice were sacrificed, tumor harvested, and CD8 T cells presence and phenotype was analyzed by FACS staining.

A further assay concerns MC38-CEA tumor. Nature of the assay: MC38-CEA tumor model: CEA-specific CD8 T cells by multimer staining. Type of assay: in vivo, C57BL/6J mice. The note with it: multimer staining one week after second vaccination, MC38-CEA tumor-bearing mice. The protocol:
Alternatively, female C57BL/6J mice were implanted with 5×10^5 MC38-CEA tumor cells subcutaneously on the back of the mouse and vaccinated twice at the base of the tail (at day 6 and 13 post tumor implantation) by s.c. injection of 10 nmoles of vaccine, 25 μg of STINGa (ADU-S100) or a combination of the two.
Female C57BL/6J mice were implanted with 5*10^5 MC38-CEA tumor cells subcutaneously on the back of the mouse. At day 6 and day 13 post tumor implantation, mice were vaccinated with 10 nmol of ATP128, 25 μg of a STING agonist (ADU-S100) or a combination of the two. Both the ATP128 vaccine and the STING agonist were injected subcutaneously at the base of the tail. One week after the second vaccination, mouse blood was collected from the tail vein and the frequency and the total number of CEA-specific CD8 T cells was analyzed by flow cytometry using a custom designed multimer.

For the molecule `Nc1ncnc2c1ncn2[C@@H]1O[C@@H]2COP(=O)(S)O[C@@H]3[C@H](O)[C@@H](COP(=O)(S)O[C@H]2[C@H]1F)O[C@H]3n1cnc2c(=O)[nH]ncc21` (stereo partly drawn) [STINGa 2], in the assay with TC-1 tumor [1], the Survival result is on record as “only provided a slight improvement” and the Tumor growth entry is reported as “only provided a slight improvement”.

With `Nc1ncnc2c1ncn2[C@@H]1O[C@@H]2CO[P@@](=O)([S][Na])O[C@@H]3[C@H](O)[C@@H](CO[P@@](=O)([S][Na])O[C@H]2[C@H]1O)O[C@H]3n1cnc2c(N)ncnc21` [STINGa, reference compound], in the assay on TC-1 tumor [2], the “Intra-tumoral immunogenicity (modulation of TME)” value is reported as “no effect was observed”. Also, the “Tumor infiltration by CD4 T cells” value in the assay with TC-1 tumor [3] is “no effect on intra-tumoral CD4 T cells recruitment”. Further, the “Tumor development / tumor growth” value in the assay on TC-1 tumor [4] was “only a small effect on tumor growth”. In the assay with IFN-α, the “Serum IFN-α level (systemic type I interferon response)” value is “high IFN-α serum levels peaking 4 hours post injection and decreasing already 24 hours later”. In the assay on B16-OVA tumor, the “Number of metastatic nodules per lung” value is listed as “no effect”. Further, the “Composition of TME” value in the assay on TC-1 tumor [5] is on record as “does not affect the composition of TME”. Further, the “Proportion of splenic CD8 T cells” value in [6] is given as “higher proportion of splenic CD8 T cells”. The “Cytokine secretion by CD8 T cells after ex vivo PMA/Ionomycin restimulation” value in assay [6] (splenocytes) is “increased cytokine secretion”. Moreover, in the assay with TC-1 tumor [7] (TC-1 tumor), the “HPV-specific proportion of tumor-infiltrating CD8 T cells (in words)” value is listed as “did not modulate”. The “Expression of exhaustion markers PD-1 and Tim-3 by tumor-infiltrating CD8 T cells” value in the assay on TC-1 tumor [7] (TC-1 tumor, flow cytometry) is “expressed only PD-1 or no exhaustion marker at all”. In the assay on TC-1 tumor [7] (TC-1 tumor, one week after last treatment), the “CD8 T cells tumor infiltration” value is recorded as “did not modulate”. Besides, the “Circulating HPV-specific CD8 T cells (frequency and number)” value in the assay with TC-1 tumor [7] (blood, one week after last treatment, TC-1 tumor-bearing mice) is recorded as “no effect”.

Turning to “ATP128: Vaccine construct (SEQ ID NO: 54) containing CEA, survivin and ASCL2 epitopes, cell penetrating peptide and TLR peptide agonist”, in the assay on MC38-CEA tumor, the “CEA-specific CD8 T cell response” value is “elicits CEA-specific CD8 T cells”.

Source of the values: patent publication US20220111028A1, “Combination Of A STING Agonist And A Complex Comprising A Cell Penetrating Peptide, A Cargo And A TLR Peptide Agonist” (priority 2020, published 2022).
